The text below walks through data of paper PMC6156078, “Thalidomide promotes degradation of SALL4, a transcription factor implicated in Duane Radial Ray syndrome” (eLife, 2018).

In one test the test system is IMiD-dependent targets. Kind of test: Rescue proteomics: pomalidomide with MLN4924 co-treatment in SK-N-DZ cells. As to conditions: 1 µM pomalidomide + 5 µM MLN4924, 5 h.
A further test has as its system SALL4. As to the kind of experiment: Western blot of SALL4: thalidomide with proteasome/NEDD8/UBA1 inhibitor co-treatment. As to conditions: Kelly, HEK293T, SK-N-DZ cells; thalidomide + 5 µM bortezomib, 5 µM MLN4924 or 0.5 µM MLN7243, 24 h. (Immunoblotting shows a protein as a band on a membrane.)
The target in test [1] is DDB1∆B-CRBN_(Spy-BodipyFL), Q16531;Q96SW2. As to the kind of experiment: TR-FRET. As to conditions: terbium-streptavidin 4 nM, read off a plot.
The test system of test [2] is IMiD-dependent neo-substrates. As to the kind of experiment: TMT proteomics profiling of IMiD-dependent neo-substrates (hESC, Kelly, SK-N-DZ, MM1s). The test is classed as cell-based, human. As to conditions: SK-N-DZ cells, 0.1 µM CC-220, 5 h (Figure 1—figure supplement 1C). An excerpt: We established a mass spectrometry-based workflow (Figure 1—figure supplement 1A) to detect IMiD-induced protein degradation in hESC.
Proteins were precipitated using methanol/chloroform.

The test system of the next test is CISD2. As to the kind of experiment: TMT proteomics SK-N-DZ cells: CISD2 abundance. As to conditions: 5 h vs DMSO, CC-220 0.1 µM.
In another test the target is ZFP91 (Homo sapiens, UniProt Q96JP5+Q96SW2). As to the kind of experiment: TMT proteomics SK-N-DZ cells: ZFP91 abundance. Particulars: 5 h vs DMSO, pomalidomide 1 µM, lenalidomide 5 µM, CC-220 0.1 µM, dBET57 1 µM.
Sequence of ZFP91 (Q96JP5 2-570 limits assumed): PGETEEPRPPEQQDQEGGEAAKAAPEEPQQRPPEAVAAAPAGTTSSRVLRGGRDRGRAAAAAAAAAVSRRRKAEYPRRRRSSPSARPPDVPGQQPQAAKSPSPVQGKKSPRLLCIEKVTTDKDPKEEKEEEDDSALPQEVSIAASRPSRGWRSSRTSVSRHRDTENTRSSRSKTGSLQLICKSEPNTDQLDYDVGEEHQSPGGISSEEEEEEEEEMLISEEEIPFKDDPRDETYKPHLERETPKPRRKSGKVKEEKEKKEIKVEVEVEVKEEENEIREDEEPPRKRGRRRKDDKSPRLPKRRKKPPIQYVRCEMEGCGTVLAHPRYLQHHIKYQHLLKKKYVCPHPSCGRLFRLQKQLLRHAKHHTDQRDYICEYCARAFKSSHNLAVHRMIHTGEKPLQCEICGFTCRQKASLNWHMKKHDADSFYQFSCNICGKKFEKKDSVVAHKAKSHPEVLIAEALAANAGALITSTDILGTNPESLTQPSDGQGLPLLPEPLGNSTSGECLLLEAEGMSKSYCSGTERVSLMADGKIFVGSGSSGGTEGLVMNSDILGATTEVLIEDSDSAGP
Sequence of ZFP91 (Q96SW2 whole entry): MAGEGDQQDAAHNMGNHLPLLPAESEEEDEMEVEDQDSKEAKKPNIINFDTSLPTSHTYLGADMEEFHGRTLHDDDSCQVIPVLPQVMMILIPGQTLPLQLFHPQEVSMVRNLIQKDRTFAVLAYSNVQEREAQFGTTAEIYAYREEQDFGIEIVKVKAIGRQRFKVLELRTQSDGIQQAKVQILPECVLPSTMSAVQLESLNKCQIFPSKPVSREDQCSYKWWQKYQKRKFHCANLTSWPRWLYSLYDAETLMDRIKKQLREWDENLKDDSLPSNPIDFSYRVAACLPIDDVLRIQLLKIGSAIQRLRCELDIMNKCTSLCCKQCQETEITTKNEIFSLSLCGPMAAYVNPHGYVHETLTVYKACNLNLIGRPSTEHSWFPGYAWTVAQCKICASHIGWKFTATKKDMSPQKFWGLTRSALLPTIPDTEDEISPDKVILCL
Sequence of ZFP91 (Q16531 whole entry partner): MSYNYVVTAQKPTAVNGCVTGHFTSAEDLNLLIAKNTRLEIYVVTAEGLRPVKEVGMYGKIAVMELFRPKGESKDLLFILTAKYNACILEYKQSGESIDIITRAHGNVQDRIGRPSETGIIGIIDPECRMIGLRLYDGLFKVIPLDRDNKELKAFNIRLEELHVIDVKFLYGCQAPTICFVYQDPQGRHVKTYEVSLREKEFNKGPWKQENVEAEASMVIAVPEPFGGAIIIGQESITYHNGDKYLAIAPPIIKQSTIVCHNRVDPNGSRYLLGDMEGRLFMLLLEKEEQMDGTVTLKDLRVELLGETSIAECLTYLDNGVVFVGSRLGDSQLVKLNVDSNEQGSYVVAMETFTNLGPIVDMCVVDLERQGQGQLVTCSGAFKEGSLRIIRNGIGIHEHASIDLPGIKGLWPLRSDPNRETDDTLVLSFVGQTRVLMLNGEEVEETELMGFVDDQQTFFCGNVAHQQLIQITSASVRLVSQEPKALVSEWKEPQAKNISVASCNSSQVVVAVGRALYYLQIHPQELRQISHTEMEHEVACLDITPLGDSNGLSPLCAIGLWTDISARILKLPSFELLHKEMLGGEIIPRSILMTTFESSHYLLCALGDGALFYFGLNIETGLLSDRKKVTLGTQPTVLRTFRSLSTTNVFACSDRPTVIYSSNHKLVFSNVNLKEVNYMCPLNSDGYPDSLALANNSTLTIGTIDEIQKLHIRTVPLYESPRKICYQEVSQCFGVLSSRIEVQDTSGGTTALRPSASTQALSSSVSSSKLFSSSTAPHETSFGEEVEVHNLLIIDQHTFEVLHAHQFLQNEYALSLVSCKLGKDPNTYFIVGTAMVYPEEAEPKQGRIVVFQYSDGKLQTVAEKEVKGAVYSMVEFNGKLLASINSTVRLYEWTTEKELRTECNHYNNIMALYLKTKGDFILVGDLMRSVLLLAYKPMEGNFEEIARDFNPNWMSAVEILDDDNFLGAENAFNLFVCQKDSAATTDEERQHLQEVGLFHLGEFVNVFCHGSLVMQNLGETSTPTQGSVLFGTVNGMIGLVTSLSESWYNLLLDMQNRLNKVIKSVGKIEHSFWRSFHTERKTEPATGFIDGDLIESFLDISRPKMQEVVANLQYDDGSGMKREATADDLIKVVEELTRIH
Another test has as its system ATP5C1. Kind of test: TMT proteomics SK-N-DZ cells: ATP5C1 abundance. As to conditions: 5 h vs DMSO, CC-220 0.1 µM.
A further test has as its system MRPS5. As to the kind of experiment: TMT proteomics SK-N-DZ cells: MRPS5 abundance. Particulars: 5 h vs DMSO, CC-220 0.1 µM.
A further test deals with MRPL3. Kind of test: TMT proteomics SK-N-DZ cells: MRPL3 abundance. Particulars: 5 h vs DMSO, CC-220 0.1 µM.
The mark [3] stands for this setting: value at the highest DDB1∆B-CRBN concentration (about 12.8 µM), SALL4 ZnF1-2 100 nM, thalidomide 50 µM, parent: est. 45.

Entries after “also recorded” stand apart in the source; their conditions may differ.

Consider `NS(=O)(=O)OC[C@@H]1C[C@@H](n2ccc3c(N[C@H]4CCc5ccccc54)ncnc32)C[C@@H]1O` [MLN4924], for which the “effect of co-treatment on IMiD-induced degradation of targets” value in the test with IMiD-dependent targets was “abrogated the degradation of all IMiD-dependent targets; also recorded: fully abrogated”. Also, the “effect of co-treatment on IMiD-induced SALL4 degradation” value in the test on SALL4 is listed as “abrogated”.

In the case of “_(Strep-BirA)hsSALL4_(590-618) (ZnF4) (from UniProt Q9UJQ4) Q595H”, the response in test [1] (value at the highest thalidomide dose (log(Thal) about -4.5 M), DDB1∆B-CRBN 1 µM, SALL4 ZnF4 100 nM, parent: est. 0.27) is 0.19 520/490.

“_(Strep-BirA)hsSALL4_(402-436) (ZnF2) (from UniProt Q9UJQ4) G416A”: the response in test [1] (value at the highest lenalidomide dose (log[Len] about -4.4 M), DDB1∆B-CRBN 200 nM, SALL4 ZnF2 100 nM, parent: est. 0.47) is 0.075 520/490; in [1] (value at the highest pomalidomide dose (log[Pom] about -4.4 M), DDB1∆B-CRBN 200 nM, SALL4 ZnF2 100 nM, parent: est. 0.97), 0.09 520/490.

For `O=C1CC[C@H](N2Cc3c(OCc4ccc(CN5CCOCC5)cc4)cccc3C2=O)C(=O)N1` [CC-220], the “induction of degradation of ZnF targets including SALL4” value in test [2] is “effective inducers of ZnF targets including SALL4 degradation”. In addition, in the test with CISD2, the “logFC CISD2” value is listed as -0.1946. Further, the “logFC ZFP91” value on ZFP91 is -2.809. The “logFC ATP5C1” value with ATP5C1 is on record as -0.1591. Also, the “logFC MRPS5” value in the test with MRPS5 is given as -0.1562. In addition, the “logFC MRPL3” value in the test on MRPL3 was -0.1878.

With “_(Strep-BirA)hsSALL4_(378-438) (ZnF1-2) (from UniProt Q9UJQ4) S388N”, the response in test [1] (setting [3]) was 45 520/490; in test [1] (value at the highest lenalidomide dose (log[Len] about -4.4 M), DDB1∆B-CRBN 200 nM, SALL4 ZnF1-2 100 nM, parent: est. 2.6), 1.6 520/490; in test [1] (value at the highest pomalidomide dose (log[Pom] about -4.4 M), DDB1∆B-CRBN 200 nM, SALL4 ZnF1-2 100 nM, parent: est. 4.1), 2.6 520/490; in test [1] (value at the highest thalidomide dose (log[Thal] about -4.4 M), DDB1∆B-CRBN 200 nM, SALL4 ZnF1-2 100 nM, parent: est. 3.7) it was 2.2 520/490.

Turning to “_(Strep-BirA)hsSALL4_(378-438) (ZnF1-2) (from UniProt Q9UJQ4) G416N”, the response in [1] (setting [3]) is 6 520/490.

Regarding `NS(=O)(=O)OC[C@H]1C[C@@H](Nc2ccnc3cc(-c4cccc(SC(F)(F)F)c4)nn23)[C@H](O)[C@@H]1O` [MLN7243], in the test with SALL4, the “effect of co-treatment on IMiD-induced SALL4 degradation” value was “abrogated”.

Consider `CC(C)C[C@H](NC(=O)[C@H](Cc1ccccc1)NC(=O)c1cnccn1)B(O)O` [bortezomib], for which, in the test on SALL4, the “effect of co-treatment on IMiD-induced SALL4 degradation” value is listed as “abrogated”.
